Data as given in ChEMBL document CHEMBL3046898, “Synthesis and characterization of flurbiprofen hydrazide derivatives as potential anti-HCV, anticancer and antimicrobial agents” (2013).
Calls of active or inactive are those of the source. No cut-off for these calls is given here.

Legend:
Micrococcus lylae [1] = assay: Antibacterial activity against Micrococcus lylae at 6.25 to 200 ug/ml after 24 hrs by microwell dilution method; assay type: functional, organism-based
Pseudomonas aeruginosa [2] = assay: Antibacterial activity against Pseudomonas aeruginosa at 10 mg/ml after 24 hrs by disc diffusion method; assay type: functional, organism-based
Staphylococcus cohnii [3] = assay: Antibacterial activity against Staphylococcus cohnii at 10 mg/ml after 24 hrs by disc diffusion method; assay type: functional
Staphylococcus aureus [4] = assay: Antibacterial activity against Staphylococcus aureus at 6.25 to 200 ug/ml after 24 hrs by microwell dilution assay; assay type: functional, organism-based
Photorhabdus luminescens [5] = assay: Antibacterial activity against Photorhabdus luminescens at 10 mg/ml after 24 hrs by disc diffusion method; assay type: functional, organism-based
Klebsiella aerogenes [6] = assay: Antibacterial activity against Enterobacter aerogenes at 6.25 to 200 ug/ml after 24 hrs by microwell dilution method; assay type: functional, organism-based
Pseudomonas aeruginosa [7] = assay: Antibacterial activity against Pseudomonas aeruginosa at 6.25 to 200 ug/ml after 24 hrs by microwell dilution method; assay type: functional, organism-based
Proteus vulgaris [8] = assay: Antibacterial activity against Proteus vulgaris at 10 mg/ml after 24 hrs by disc diffusion method; assay type: functional, organism-based
Micrococcus luteus [9] = assay: Antibacterial activity against Micrococcus luteus at 6.25 to 200 ug/ml after 24 hrs by microwell dilution method; assay type: functional, organism-based
Candida tropicalis = assay: Antifungal activity against Candida tropicalis at 10 mg/ml after 48 hrs by disc diffusion method; assay type: functional, organism-based
[10] = test system: Schwanniomyces occidentalis; assay: Antifungal activity against Schwanniomyces occidentalis at 10 mg/ml after 48 hrs by disc diffusion method; assay type: functional, organism-based
Klebsiella aerogenes [11] = assay: Antibacterial activity against Enterobacter aerogenes at 10 mg/ml after 24 hrs by disc diffusion method; assay type: functional, organism-based
Micrococcus luteus [12] = assay: Antibacterial activity against Micrococcus luteus at 10 mg/ml after 24 hrs by disc diffusion method; assay type: functional, organism-based
[13] = test system: Acinetobacter radioresistens; assay: Antibacterial activity against Acinetobacter radioresistens at 6.25 to 200 ug/ml after 24 hrs by microwell dilution method; assay type: functional, organism-based
Candida albicans = assay: Antifungal activity against Candida albicans at 10 mg/ml after 48 hrs by disc diffusion method; assay type: functional, organism-based
Hepacivirus hominis = assay: Inhibition of HCV N-terminal His-tagged NS5B RNA dependent RNA polymerase expressed in Escherichia coli DH5alpha using poly rA/U12 as primer at 200 uM after 60 mins by liquid scintillation counting
Nakaseomyces glabratus = assay: Antifungal activity against Candida glabrata at 10 mg/ml after 48 hrs by disc diffusion method; assay type: functional, organism-based
Staphylococcus cohnii [14] = assay: Antibacterial activity against Staphylococcus cohnii at 6.25 to 200 ug/ml after 24 hrs by microwell dilution assay; assay type: functional, organism-based
Staphylococcus aureus [15] = assay: Antibacterial activity against Staphylococcus aureus at 10 mg/ml after 24 hrs by disc diffusion method; assay type: functional
Kluyveromyces marxianus = assay: Antifungal activity against Kluyveromyces marxianus at 10 mg/ml after 48 hrs by disc diffusion method; assay type: functional, organism-based
[16] = test system: Acinetobacter radioresistens; assay: Antibacterial activity against Acinetobacter radioresistens at 10 mg/ml after 24 hrs by disc diffusion method; assay type: functional, organism-based
Salmonella paratyphi [17] = assay: Antibacterial activity against Salmonella paratyphi at 6.25 to 200 ug/ml after 24 hrs by microwell dilution method; assay type: functional, organism-based; details: Salmonella enterica subsp. enterica serovar Paratyphi A
Micrococcus lylae [18] = assay: Antibacterial activity against Micrococcus lylae at 10 mg/ml after 24 hrs by disc diffusion method; assay type: functional, organism-based
Pichia membranifaciens = assay: Antifungal activity against Pichia membranifaciens at 10 mg/ml after 48 hrs by disc diffusion method; assay type: functional, organism-based
Photorhabdus luminescens [19] = assay: Antibacterial activity against Photorhabdus luminescens at 6.25 to 200 ug/ml after 24 hrs by microwell dilution method; assay type: functional, organism-based
Escherichia coli [20] = assay: Antibacterial activity against Escherichia coli at 10 mg/ml after 24 hrs by disc diffusion method; assay type: functional, organism-based
Escherichia coli [21] = assay: Antibacterial activity against Escherichia coli at 6.25 to 200 ug/ml after 24 hrs by microwell dilution method; assay type: functional, organism-based
Salmonella paratyphi [22] = assay: Antibacterial activity against Salmonella paratyphi at 10 mg/ml after 24 hrs by disc diffusion method; assay type: functional, organism-based; details: Salmonella enterica subsp. enterica serovar Paratyphi A
Candida parapsilosis = assay: Antifungal activity against Candida parapsilosis at 10 mg/ml after 48 hrs by disc diffusion method; assay type: functional, organism-based
Aspergillus = assay: Antifungal activity against Aspergillus at 10 mg/ml after 72 hrs by disc diffusion method; assay type: functional, organism-based
Proteus vulgaris [23] = assay: Antibacterial activity against Proteus vulgaris at 6.25 to 200 ug/ml after 24 hrs by microwell dilution method; assay type: functional, organism-based

Row | SMILES | Activity (Micrococcus lylae [1]) | Activity (Pseudomonas aeruginosa [2]) | Activity (Staphylococcus cohnii [3]) | Activity (Staphylococcus aureus [4]) | Activity (Photorhabdus luminescens [5]) | Activity (Klebsiella aerogenes [6]) | Activity (Pseudomonas aeruginosa [7]) | Activity (Proteus vulgaris [8]) | Activity (Micrococcus luteus [9]) | Activity (Candida tropicalis) | Activity [10] | Activity (Klebsiella aerogenes [11]) | Activity (Micrococcus luteus [12]) | Activity [13] | Activity (Candida albicans) | inhibition (Hepacivirus hominis) | Activity (Nakaseomyces glabratus) | Activity (Staphylococcus cohnii [14]) | Activity (Staphylococcus aureus [15]) | Activity (Kluyveromyces marxianus) | further results
1 | CCCNC(=S)NNC(=O)C(C)c1ccc(-c2ccccc2)c(F)c1 (configuration not stated) | inactive | inactive | inactive | inactive | inactive | inactive | inactive | inactive | inactive | inactive | inactive | inactive | inactive | inactive | inactive | 8% | inactive | inactive | inactive | inactive | Activity [16]: inactive; Activity (Salmonella paratyphi [17]): inactive; Activity (Micrococcus lylae [18]): inactive; Activity (Pichia membranifaciens): inactive; Activity (Photorhabdus luminescens [19]): inactive; Activity (Escherichia coli [20]): inactive; Activity (Escherichia coli [21]): inactive; Activity (Salmonella paratyphi [22]): inactive; Activity (Candida parapsilosis): inactive; Activity (Aspergillus): inactive; Activity (Proteus vulgaris [23]): inactive
2 | CC(C(=O)N/N=C/c1ccc([N+](=O)[O-])cc1)c1ccc(-c2ccccc2)c(F)c1 (configuration not stated) | inactive | inactive | inactive | inactive | inactive | inactive | inactive | inactive | inactive | inactive | inactive | inactive | inactive | inactive | inactive | 8% | inactive | inactive | inactive | inactive | Activity [16]: inactive; Activity (Salmonella paratyphi [17]): inactive; Activity (Micrococcus lylae [18]): inactive; Activity (Pichia membranifaciens): inactive; Activity (Photorhabdus luminescens [19]): inactive; Activity (Escherichia coli [20]): inactive; Activity (Escherichia coli [21]): inactive; Activity (Salmonella paratyphi [22]): inactive; Activity (Candida parapsilosis): inactive; Activity (Aspergillus): inactive; Activity (Proteus vulgaris [23]): inactive
3 | CC(C(=O)NN1C(=O)CSC1c1cccc(F)c1)c1ccc(-c2ccccc2)c(F)c1 (configuration not stated) | inactive | inactive | inactive | inactive | inactive | inactive | inactive | inactive | inactive | inactive | inactive | inactive | inactive | inactive | inactive | 8% | inactive | inactive | inactive | inactive | Activity [16]: inactive; Activity (Salmonella paratyphi [17]): inactive; Activity (Micrococcus lylae [18]): inactive; Activity (Pichia membranifaciens): inactive; Activity (Photorhabdus luminescens [19]): inactive; Activity (Escherichia coli [20]): inactive; Activity (Escherichia coli [21]): inactive; Activity (Salmonella paratyphi [22]): inactive; Activity (Candida parapsilosis): inactive; Activity (Aspergillus): inactive; Activity (Proteus vulgaris [23]): inactive
4 | CC(C(=O)NNC(=S)NCc1ccccc1)c1ccc(-c2ccccc2)c(F)c1 (configuration not stated) | inactive | inactive | inactive | inactive | inactive | inactive | inactive | inactive | inactive | inactive | inactive | inactive | inactive | inactive | inactive | 8% | inactive | inactive | inactive | inactive | Activity [16]: inactive; Activity (Salmonella paratyphi [17]): inactive; Activity (Micrococcus lylae [18]): inactive; Activity (Pichia membranifaciens): inactive; Activity (Photorhabdus luminescens [19]): inactive; Activity (Escherichia coli [20]): inactive; Activity (Escherichia coli [21]): inactive; Activity (Salmonella paratyphi [22]): inactive; Activity (Candida parapsilosis): inactive; Activity (Aspergillus): inactive; Activity (Proteus vulgaris [23]): inactive
5 | CC(C(=O)NN1C(=O)CSC1c1c(F)cccc1F)c1ccc(-c2ccccc2)c(F)c1 (configuration not stated) | inactive | inactive | inactive | inactive | inactive | inactive | inactive | inactive | inactive | inactive | inactive | inactive | inactive | inactive | inactive | 8% | inactive | inactive | inactive | inactive | Activity [16]: inactive; Activity (Salmonella paratyphi [17]): inactive; Activity (Micrococcus lylae [18]): inactive; Activity (Pichia membranifaciens): inactive; Activity (Photorhabdus luminescens [19]): inactive; Activity (Escherichia coli [20]): inactive; Activity (Escherichia coli [21]): inactive; Activity (Salmonella paratyphi [22]): inactive; Activity (Candida parapsilosis): inactive; Activity (Aspergillus): inactive; Activity (Proteus vulgaris [23]): inactive
6 | CC(C(=O)N/N=C1\SCC(=O)N1Cc1ccccc1)c1ccc(-c2ccccc2)c(F)c1 (configuration not stated) | inactive | inactive | inactive | inactive | inactive | inactive | inactive | inactive | inactive | inactive | inactive | inactive | inactive | inactive | inactive | 8% | inactive | inactive | inactive | inactive | Activity [16]: inactive; Activity (Salmonella paratyphi [17]): inactive; Activity (Micrococcus lylae [18]): inactive; Activity (Pichia membranifaciens): inactive; Activity (Photorhabdus luminescens [19]): inactive; Activity (Escherichia coli [20]): inactive; Activity (Escherichia coli [21]): inactive; Activity (Salmonella paratyphi [22]): inactive; Activity (Candida parapsilosis): inactive; Activity (Aspergillus): inactive; Activity (Proteus vulgaris [23]): inactive
7 | CC(C(=O)N/N=C/c1cccc(F)c1)c1ccc(-c2ccccc2)c(F)c1 (configuration not stated) | inactive | inactive | inactive | inactive | inactive | inactive | inactive | inactive | inactive | inactive | inactive | inactive | inactive | inactive | inactive | 8% | inactive | inactive | inactive | inactive | Activity [16]: inactive; Activity (Salmonella paratyphi [17]): inactive; Activity (Micrococcus lylae [18]): inactive; Activity (Pichia membranifaciens): inactive; Activity (Photorhabdus luminescens [19]): inactive; Activity (Escherichia coli [20]): inactive; Activity (Escherichia coli [21]): inactive; Activity (Salmonella paratyphi [22]): inactive; Activity (Candida parapsilosis): inactive; Activity (Aspergillus): inactive; Activity (Proteus vulgaris [23]): inactive
